Measurements: patent US8088806B2 (Achillion Pharmaceuticals, Inc., priority 2005, dated 2012)
pEC50: −log10 of the molar value. Counter-ions that a name gives are not always drawn.

Tested on: HCV replicon
Test: Replicon based assay of HCV replication inhibition (NPT ELISA)
Type: cell-based, Hepatitis C virus
Conditions: Hepatitis C virus, Huh-7, 72 h, Table I; Huh-7 HCV replicon-containing cells, three days; read-out: Activity
Summary of the method: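 NPT (neomycin phosphotransferase) content, proportional to replicon replication, quantified by capture ELISA on day four. Before that, replicon-bearing Huh-7 cells in G418-free screening medium were exposed three days at 37° C to compound, typically six doses from 10 to 0.03 micromolar, with equal DMSO across wells.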

Question: With `CCCCCOc1ccc(Nc2nc(-c3ccc(C(=O)N(C)C)cn3)cs2)cc1C(F)(F)F` [compound 215, 6-(2-(3-(trifluoromethyl)-4-(pentyloxy)phenylamino)thiazol-4-yl)-N,N-dimethylpyridine-3-carboxamide] as the compound, how does the pEC50 read?
Answer: The pEC50 was greater than 6.00.

Question: How did the pEC50 turn out when `CCCCCOc1ccc(Nc2nc(CN3CCNC(=O)C3)cs2)cc1C(F)(F)F` [compound 216, 4-((2-(3-(trifluoromethyl)-4-(pentyloxy)phenylamino)thiazol-4-yl)methyl)piperazin-2-one] was run?
Answer: The pEC50 was greater than 6.00.

Question: `CCCCCOc1ccc(Nc2nc(CN3CCN(C)CC3)cs2)cc1C(F)(F)F` [compound 217, N-(3-(trifluoromethyl)-4-(pentyloxy)phenyl)-4-((4-methylpiperazin-1-yl)methyl)thiazol-2-amine] was tested. Which pEC50 did it give?
Answer: The pEC50 was greater than 6.00.

Question: `CCCCCOc1ccc(Nc2nc(CN(C)CC(N)=O)cs2)cc1C(F)(F)F` [compound 218, 2-(N-((2-(3-(trifluoromethyl)-4-(pentyloxy)phenylamino)thiazol-4-yl)methyl)-N-methylamino)acetamide] was tested. Which pEC50 did it give?
Answer: Its pEC50 is greater than 6.00.

Question: `CCCCCOc1ccc(Nc2nc(-c3ccc(C(=O)N(C)CC(N)=O)nc3)cs2)cc1C(F)(F)F` [compound 221, 5-(2-(3-(trifluoromethyl)-4-(pentyloxy)phenylamino)thiazol-4-yl)-N-(carbamoylmethyl)-N-methylpyridine-2-carboxamide] was tested. Which pEC50 did it give?
Answer: The pEC50 was greater than 6.00.

Question: With `CCCCCOc1ccc(Nc2nc(-c3ccc(C(=O)N4CCNC(=O)C4)nc3)cs2)cc1C(F)(F)F` [compound 222] as the compound, how does the pEC50 read?
Answer: The pEC50 was greater than 6.00.

Question: With `CCCCCOc1ccc(Nc2nc(-c3cn4ccccc4n3)cs2)cc1C(F)(F)F` [compound 223, N-(3-(trifluoromethyl)-4-(pentyloxy)phenyl)-4-(H-imidazo[1,2-a]pyridin-2-yl)thiazol-2-amine] as the compound, how does the pEC50 read?
Answer: The pEC50 was greater than 6.00.

Same assay, conditions: Hepatitis C virus, replicon based assay of HCV replication inhibition; Table II; read-out: Activity

Question: `CCCCCOc1ccc(Nc2nc(C3CCCN(C(=O)OC(C)(C)C)C3)cs2)cc1C(F)(F)F` (centres unmarked) [compound 224, tert-butyl 3-(2-(4-(pentyloxy)-3-(trifluoromethyl)phenyl-amino)thiazol-4-yl)piperidine-1-carboxylate] was tested. Which pEC50 did it give?
Answer: Its pEC50 is greater than 6.00.

Question: How did the pEC50 turn out when `CCCCCOc1ccc(Nc2nc(C3CCCNC3)cs2)cc1C(F)(F)F` (centres unmarked) [compound 225, N-(4-(pentyloxy)-3-(trifluoromethyl)phenyl)-4-(piperidin-3-yl)thiazol-2-amine hydrochloride] was run?
Answer: The pEC50 was 5.00 to 6.00.

Question: How did the pEC50 turn out when `CCCCCOc1ccc(Nc2nc(C3CCCN3C(=O)C(F)(F)F)cs2)cc1C(F)(F)F` (centres unmarked) [compound 226, 2,2,2-trifluoro-1-(2-(2-(4-(pentyloxy)-3(trifluoromethyl)phenyl-amino)thiazol-4-yl)pyrrolidin-1-yl)ethanone] was run?
Answer: The pEC50 was 5.00 to 6.00.

Question: How did the pEC50 turn out when `CCCCCOc1ccc(Nc2nc(-c3cnc4scc(C)n34)cs2)cc1C(F)(F)F` [compound 227, 4-(3-methylimidazo[1,2-b]thiazol-5-yl)-N-(4-(pentyloxy)-3-(trifluoromethyl)phenyl)thia-zol-2-amine] was run?
Answer: The pEC50 was greater than 6.00.

Question: `CCCCCOc1ccc(Nc2nc(C3=CSC4=NCCN34)cs2)cc1C(F)(F)F` [compound 228, 4-(5,6-dihydroimidazo[2,1-b]thiazol-3-yl)-N-(4-(pentyloxy)-3-(trifluoromethyl)phenyl)thia-zol-2-amine] was tested. Which pEC50 did it give?
Answer: The pEC50 was greater than 6.00.

Question: `CCCCCOc1ccc(Nc2nc(C3=NN=C(N)SC3)cs2)cc1C(F)(F)F` [compound 229, 5-(2-(4-(pentyloxy)-3-(trifluoromethyl)phenyl-amino)thiazol-4-yl)-6H-1,3,4-thiazdiazin-2-amine] was tested. Which pEC50 did it give?
Answer: The pEC50 was greater than 6.00.

Question: With `CCCCCOc1ccc(Nc2nc(CN3CCCCC3)cs2)cc1C(F)(F)F` [compound 230, N-(4-(pentyloxy)-3-(trifluoromethyl)phenyl)-4-(piperidin-1-ylmethyl)thiazol-2-amine] as the compound, how does the pEC50 read?
Answer: The pEC50 was 5.00 to 6.00.

Question: How did the pEC50 turn out when `CCCCCOc1ccc(Nc2nc(CN3CCC(C)CC3)cs2)cc1C(F)(F)F` [compound 231, 4-((4-methylpiperidin-1-yl)methyl)-N-(4-(pentyloxy)-3-(trifluoromethyl)phenyl)thia-zol-2-amine] was run?
Answer: The pEC50 was greater than 6.00.

Question: How did the pEC50 turn out when `CCCCCOc1ccc(Nc2nc(C(=O)Nc3ccncc3)cs2)cc1C(F)(F)F` [compound 232, 2-(4-(pentyloxy)-3-(trifluoromethyl)phenyl-amino)-N-(pyridin-4-yl)thiazole-4-carboxamide] was run?
Answer: Its pEC50 is 5.00 to 6.00.

Question: With `CCCCCOc1ccc(Nc2nc(C(=O)Nc3ccc(C(F)(F)F)nc3)cs2)cc1C(F)(F)F` [compound 233, 2-(4-(pentyloxy)-3-(trifluoromethyl)phenyl-amino)-N-(6-(trifluoromethyl)pyridin-3-yl)thiazole-4-carboxamide] as the compound, how does the pEC50 read?
Answer: Its pEC50 is less than 5.00.

Question: How did the pEC50 turn out when `CCCCCOc1ccc(Nc2nc(-c3ccc(CN(C)C)cc3)cs2)cc1C(F)(F)F` [compound 234, 4-(4-((dimethylamino)methyl)phenyl)-N-(4-(pentyloxy)-3-(trifluoromethyl)phenyl)thia-zol-2-amine] was run?
Answer: The pEC50 was greater than 6.00.

Question: `CCCCCOc1ccc(Nc2nc([C@H]3CCCN(C)C3)cs2)cc1C(F)(F)F` [compound 235, (S)-4-(1-methylpiperidin-3-yl)-N-(4-(pentyloxy)-3-(trifluoromethyl)phenyl)thia-zol-2-amine] was tested. Which pEC50 did it give?
Answer: The pEC50 was greater than 6.00.

Question: `CN1CCC[C@H](c2csc(Nc3ccc(Oc4ccccc4)cc3)n2)C1` [compound 236, (S)-4-(1-methylpiperidin-3-yl)-N-(4-phenoxyphenyl)thiazol-2-amine] was tested. Which pEC50 did it give?
Answer: Its pEC50 is 5.00 to 6.00.

Question: How did the pEC50 turn out when `CN1CCC[C@H](c2csc(Nc3cccc(OCc4ccccc4)c3)n2)C1` [compound 237, (S)-N-(3-(benzyloxy)phenyl)-4-(1-methylpiperidin-3-yl)thiazol-2-amine] was run?
Answer: The pEC50 was 5.00 to 6.00.

Question: `FC(F)(F)c1cc(Nc2nc(-c3cccnc3)cs2)ccc1OC1CCCC1` [compound 238, N-(4-(cyclopentyloxy)-3-(trifluoromethyl)phenyl)-4-(pyridin-3-yl)thiazol-2-amine] was tested. Which pEC50 did it give?
Answer: Its pEC50 is greater than 6.00.

Question: `CC(C)COc1ccc(Nc2nc(-c3cccnc3)cs2)cc1C(F)(F)F` [compound 239, N-(4-isobutoxy-3-(trifluoromethyl)phenyl)-4-(pyridin-3-yl)thiazol-2-amine] was tested. Which pEC50 did it give?
Answer: The pEC50 was greater than 6.00.

Question: How did the pEC50 turn out when `FC(F)(F)c1cc(Nc2nc(-c3cccnc3)cs2)ccc1OCC1CC1` [compound 240, N-(4-(cyclopropylmethoxy)-3-(trifluoromeethyl)phenyl)-4-(pyridin-3-yl)thiazol-2-amine] was run?
Answer: The pEC50 was greater than 6.00.

Question: `Fc1ccc(-c2csc(Nc3ccc(OC4CCCC4)c(C(F)(F)F)c3)n2)cc1` [compound 241, N-(4-(cyclopentyloxy)-3-(trifluoromethyl)phenyl)-4-(4-fluorophenyl)thiazol-2-amine] was tested. Which pEC50 did it give?
Answer: The pEC50 was greater than 6.00.

Question: With `CC(C)COc1ccc(Nc2nc(-c3ccc(F)cc3)cs2)cc1C(F)(F)F` [compound 242, 4-(4-fluorophenyl)-N-(4-isobutoxy-3-(trifluoromethyl)phenyl)thia-zol-2-amine] as the compound, how does the pEC50 read?
Answer: The pEC50 was greater than 6.00.

Question: How did the pEC50 turn out when `Fc1ccc(-c2csc(Nc3ccc(OCC4CC4)c(C(F)(F)F)c3)n2)cc1` [compound 243, N-(4-(cyclopropylmethoxy)-3-(trifluoromethyl)phenyl)-4-(4-fluorophenyl)thiazol-2-amine] was run?
Answer: Its pEC50 is greater than 6.00.

Question: How did the pEC50 turn out when `CC(C)COc1ccc(Nc2nc(-c3ccc(CC(=O)O)s3)cs2)cc1C(F)(F)F` [compound 244, 2-(5-(2-(4-isobutoxy-3-(trifluoromethyl)phenyl-amino)thiazol-4-yl)thiophen-2-yl)acetic acid] was run?
Answer: The pEC50 was greater than 6.00.

Question: `Cc1sc(Nc2ccc(OC3CCCC3)c(C(F)(F)F)c2)nc1-c1ccc(CC(=O)O)cc1` [compound 245, 2-(4-(2-(4-(cyclopentyloxy)-3-(trifluoromethyl)phenyl-amino)-5-methylthiazol-4-yl)phenyl)acetic acid] was tested. Which pEC50 did it give?
Answer: The pEC50 was greater than 6.00.

Question: With `Cc1sc(Nc2ccc(OCC(C)C)c(C(F)(F)F)c2)nc1-c1ccc(CC(=O)O)cc1` [compound 246, 2-(4-(2-(4-isobutoxy-3-(trifluoromethyl)phenyl-amino)-5-methylthiazol-4-yl)phenyl)acetic acid] as the compound, how does the pEC50 read?
Answer: Its pEC50 is 5.00 to 6.00.

Question: How did the pEC50 turn out when `O=C(O)Cc1ccc(-c2csc(Nc3ccc(OC4CCCC4)c(C(F)(F)F)c3)n2)s1` [compound 247, 2-(5-(2-(4-(cyclopentyloxy)-3-(trifluoromethyl)phenyl-amino)-thiazol-4-yl)thiophen-2-yl)acetic acid] was run?
Answer: The pEC50 was greater than 6.00.

Question: With `COc1ccc(-c2csc(Nc3ccc(OC4CCCC4)c(C(F)(F)F)c3)n2)cc1` [compound 248, N-(4-(cyclopentyloxy)-3-(trifluoromethyl)phenyl)-4-(4-methoxyphenyl)thiazol-2-amine] as the compound, how does the pEC50 read?
Answer: The pEC50 was greater than 6.00.

Question: `COc1ccc(-c2csc(Nc3ccc(OCC(C)C)c(C(F)(F)F)c3)n2)cc1` [compound 249, N-(4-isobutoxy-3-(trifluoromethyl)phenyl)-4-(4-methoxyphenyl)thiazol-2-amine] was tested. Which pEC50 did it give?
Answer: Its pEC50 is greater than 6.00.

Question: `COc1ccc(-c2csc(Nc3ccc(OCC4CC4)c(C(F)(F)F)c3)n2)cc1` [compound 250, N-(4-(cyclopropylmethoxy)-3-(trifluoromethyl)phenyl)-4-(4-methoxyphenyl)thiazol-2-amine] was tested. Which pEC50 did it give?
Answer: Its pEC50 is greater than 6.00.

Question: `O=C1COc2ccc(-c3csc(Nc4ccc(OC5CCCC5)c(C(F)(F)F)c4)n3)cc2N1` [compound 251, 6-(2-(4-(cyclopentyloxy)-3-(trifluoromethyl)phenyl-amino)thiazol-4-yl)-2H-benzo[b][1,4]oxazin-3(4H)-one] was tested. Which pEC50 did it give?
Answer: Its pEC50 is greater than 6.00.

Question: With `CC(C)COc1ccc(Nc2nc(-c3ccc4c(c3)NC(=O)CO4)cs2)cc1C(F)(F)F` [compound 252, 6-(2-(4-isobutoxy-3-(trifluoromethyl)phenyl-amino)thiazol-4-yl)-2H-benzo[b][1,4]oxazin-3(4H)-one] as the compound, how does the pEC50 read?
Answer: The pEC50 was greater than 6.00.

Question: How did the pEC50 turn out when `O=C1COc2ccc(-c3csc(Nc4ccc(OCC5CC5)c(C(F)(F)F)c4)n3)cc2N1` [compound 253, 6-(2-(4-(cyclopropylmethoxy)-3-(trifluoromthyl)phenyl-amino)thiazol-4-yl)-2H-benzo[b][1,4]oxazin-3(4H)-one] was run?
Answer: The pEC50 was 5.00 to 6.00.

Question: `NC(=O)c1cc(-c2csc(Nc3ccc(OC4CCCC4)c(C(F)(F)F)c3)n2)ccc1O` [compound 254, 5-(2-(4-(cyclopentyloxy)-3-(trifluoromethyl)phenyl-amino)thiazol-4-yl)-2-hydroxybenzamide] was tested. Which pEC50 did it give?
Answer: The pEC50 was greater than 6.00.
